In patent US20200078468A1, “NEUROTENSIN RECEPTOR BINDING CONJUGATES AND FORMULATIONS THEREOF” (priority 2016, published 2020) one finds IC50 and Ki data, which are given here for five molecules.

Where two headings read alike, the source gives them in different places. Numbered stars: 1 amine (or outer) side, 2 acyl side, 3 side chain; on linkers, the order of the positions; unused ones are H or OH. Bridge positions count the residues as written; N and C are the ends. Square brackets hold non-standard residues; d marks the D form. Peptide text beside a SMILES is read from it. I, II: the chains in the order shown. * marks the point of attachment. MMAE(N-CO2CH2CH2S) = CC[C@H](C)[C@@H]([C@@H](CC(=O)N1CCC[C@H]1[C@H](OC)[C@@H](C)C(=O)N[C@H](C)[C@@H](O)c1ccccc1)OC)N(C)C(=O)[C@@H](NC(=O)[C@H](C(C)C)N(C)C(=O)OCCS*)C(C)C; Hexanoyl(6-succinimido-3yl) = O=C1CC([*:1])C(=O)N1CCCCCC(=O)[*:2]; Dolaproine = CO[C@@H]([C@@H]1CCCN1)[C@@H](C)C(=O)O; Dil = CC[C@H](C)[C@H](NC)[C@@H](CC(=O)O)OC; PABC = O=C(OCc1ccc(N[*:1])cc1)[*:2]; X1 = C[C@@H](N*)[C@@H](O)c1ccccc1; Cit = NC(=O)NCCC[C@H](N)C(=O)O; Pen = CC(C)(S)[C@H](N)C(=O)O; Tle = CC(C)(C)[C@H](N)C(=O)O; NMeV = CN[C@H](C(=O)O)C(C)C

Assay [1] has as its system SW48 (human colon cancer cells). As to the kind of experiment: inhibition of SW48 cell proliferation (CellTiter Glo). The assay is classed as cell-based. Conditions: 72 hrs, read-out: SW-48 proliferation IC50. The method in brief: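 Cells plated at 5,000/well and grown 24 hrs were exposed to conjugates for 72 hrs at 37° C, 5% CO2, in a ten-point three-fold series starting at 10 μM; vehicle was 0.01% DMSO. Proliferation was read by CellTiter Glo. % inhibition was taken relative to vehicle, with IC50 from four-parameter nonlinear regression.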
A general note: ATP-based viability assays read luminescence as a measure of living cells.

For the next assay, the target named is T1, human NTSR1 (Homo sapiens, UniProt P30989).
T1 construct: host or cells: HEK-293 cells (membrane preparations)
T1 sequence (P30989 whole entry): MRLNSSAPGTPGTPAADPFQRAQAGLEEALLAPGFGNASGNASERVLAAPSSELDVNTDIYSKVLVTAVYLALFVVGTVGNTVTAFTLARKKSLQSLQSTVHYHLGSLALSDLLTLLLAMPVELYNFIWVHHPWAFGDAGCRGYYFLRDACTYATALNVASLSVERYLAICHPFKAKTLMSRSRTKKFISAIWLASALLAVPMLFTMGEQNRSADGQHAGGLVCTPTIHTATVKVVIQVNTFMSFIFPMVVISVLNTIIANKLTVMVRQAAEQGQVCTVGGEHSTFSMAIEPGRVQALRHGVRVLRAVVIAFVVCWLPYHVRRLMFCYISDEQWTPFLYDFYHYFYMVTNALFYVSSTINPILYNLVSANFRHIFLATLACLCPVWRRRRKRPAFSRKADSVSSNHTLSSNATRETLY
Kind of assay: radioligand-receptor binding assay, [125I] labeled neurotensin (Eurofins Panlabs). The method in brief: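 Membranes from HEK-293 cells expressing human NTSR1 incubated 45 min with 0.02 nM [125I]neurotensin and conjugate in 6-point 3-fold dilutions from 100 or 10 nM; bound radioactivity counted after filtration. IC50 by nonlinear regression, converted to Ki via Cheng–Prusoff using historical ligand Kd.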

In assay [2] the test system is HT-29 cells (human colon cancer cells). As to the kind of experiment: inhibition of HT29 cell proliferation (Cell Titer Glo 2.0). It is filed as cell-based. Conditions: 72 h. The protocol: Conjugates were assessed in an in vitro assay evaluating inhibition of cell proliferation. HT-29 cells (human colon cancer cells) were seeded in white walled 96-well plates at 10,000 cells per well in 100 μl McCoy's 5a (Invitrogen) media supplemented with 10% Fetal Bovine Serum (Invitrogen). After allowing cells to settle overnight, 5 μl of 20× test article was added to each well in replicate and incubated for 72 h. 72 hours after addition of compound, plates were removed from incubator and allowed to cool to room temperature. 50 μl of Cell Titer Glo 2.0 (Promega) was added to each well, incubated for 15 minutes, and plates were read on Glomax luminometer (Promega) using the Cell Titer Glo protocol. Raw luminometer readings for each plate were transformed by dividing the experimental well into the mean of untreated control wells. This is reported as ratio of untreated, and is plotted with Prism 6 software (Graph Pad) and fitted with a 4-parameter, variable slope curve.
Conjugates are assessed for receptor-dependent cytotoxicity by the difference between an NTSR1-targeting conjugate, and the corresponding conjugate with the same linker moiety and active agent where the NTSR1-targeting domain has been scrambled.

The mark [3] stands for this setting: [125I] neurotensin 0.02 nM, membranes from NTSR1 expressing HEK-293 cells, 45 minute incubation, Cheng and Prusoff, read-out: NTSR1 binding Ki.

A word on the Ki: it is a measure of affinity in units of concentration, obtained from inhibition or displacement. Regarding `CC[C@H](C)[C@@H]([C@@H](CC(=O)N1CCC[C@H]1[C@H](OC)[C@@H](C)C(=O)N[C@H](C)[C@@H](O)c1ccccc1)OC)N(C)C(=O)[C@@H](NC(=O)[C@H](C(C)C)N(C)C(=O)OCc1ccc(NC(=O)[C@H](CCCNC(N)=O)NC(=O)[C@@H](NC(=O)CCCCCN2C(=O)CC(SC(C)(C)[C@H](NC(C)=O)C(=O)N3CCC[C@H]3C(=O)N[C@@H](CCCNC(=N)N)C(=O)N[C@@H](CCCNC(=N)N)C(=O)N3CCC[C@H]3C(=O)N[C@@H](Cc3ccc(O)cc3)C(=O)N[C@H](C(=O)N[C@@H](CC(C)C)C(=O)O)C(C)(C)C)C2=O)C(C)C)cc1)C(C)C` (stereo partly drawn) [Compound 53] (I: Ac-[Pen]PRRPY[Tle]L-OH / II: V[Cit][PABC][NMeV]V[Dil][Dolaproine]-X1; linker I:1-II:N via Hexanoyl(6-succinimido-3yl)), the IC50 in assay [1] (NTSR1 targeted compound) was determined as 17 nM; in assay [2] (NTSR1 targeted compound) it was 16 nM. Besides, the Ki at human NTSR1 (setting [3]) amounted to 3.15 nM.
Turning to `CC[C@H](C)[C@@H]([C@@H](CC(=O)N1CCC[C@H]1[C@H](OC)[C@@H](C)C(=O)N[C@H](C)[C@@H](O)c1ccccc1)OC)N(C)C(=O)[C@@H](NC(=O)[C@H](C(C)C)N(C)C(=O)OCc1ccc(NC(=O)[C@H](CCCNC(N)=O)NC(=O)[C@@H](NC(=O)CCCCCN2C(=O)CC(SCCC(=O)NCCCC[C@H](NC(C)=O)C(=O)N3CCC[C@H]3C(=O)N(C)[C@@H](CCCNC(=N)N)C(=O)N[C@@H](CCCNC(=N)N)C(=O)N3CCC[C@H]3C(=O)N[C@@H](Cc3ccc(O)cc3)C(=O)N[C@H](C(=O)N[C@@H](CC(C)C)C(=O)O)C(C)(C)C)C2=O)C(C)C)cc1)C(C)C` (stereo partly drawn) [Compound 54], the values for the IC50 in assay [1] (NTSR1 targeted compound) and in assay [2] (NTSR1 targeted compound) were 22 nM and 6.2 nM, respectively. The molecule further gave a Ki at human NTSR1 of 1.45 nM.
On to `CC[C@H](C)[C@@H]([C@@H](CC(=O)N1CCC[C@H]1[C@H](OC)[C@@H](C)C(=O)N[C@H](C)[C@@H](O)c1ccccc1)OC)N(C)C(=O)[C@@H](NC(=O)[C@H](C(C)C)N(C)C(=O)OCCSSC(C)(C)[C@H](NC(C)=O)C(=O)N1CCC[C@H]1C(=O)N[C@@H](CCCNC(=N)N)C(=O)N[C@@H](CCCNC(=N)N)C(=O)N1CCC[C@H]1C(=O)N[C@@H](Cc1ccc(O)cc1)C(=O)N[C@H](C(=O)N[C@@H](CC(C)C)C(=O)O)C(C)(C)C)C(C)C` [Compound 55] (Ac-[Pen](MMAE(N-CO2CH2CH2S))PRRPY[Tle]L-OH), for which the values for the IC50 in assay [1] (NTSR1 targeted compound) and in assay [2] (NTSR1 targeted compound) were 13 nM and 1.9 nM, respectively. Further, the inhibition constant (Ki) at human NTSR1 (setting [3]) came to 1.53 nM.
For the molecule `CC[C@H](C)[C@@H]([C@@H](CC(=O)N1CCC[C@H]1[C@H](OC)[C@@H](C)C(=O)N[C@H](C)[C@@H](O)c1ccccc1)OC)N(C)C(=O)[C@@H](NC(=O)[C@H](C(C)C)N(C)C(=O)OCCSSCCC(=O)NCCCC[C@H](NC(C)=O)C(=O)N1CCC[C@H]1C(=O)N(C)[C@@H](CCCNC(=N)N)C(=O)N[C@@H](CCCNC(=N)N)C(=O)N1CCC[C@H]1C(=O)N[C@@H](Cc1ccc(O)cc1)C(=O)N[C@H](C(=O)N[C@@H](CC(C)C)C(=O)O)C(C)(C)C)C(C)C` [Compound 56], the IC50 in assay [1] (NTSR1 targeted compound) turned out to be 4.3 nM; in assay [2] (NTSR1 targeted compound), 0.42 nM. Besides, the inhibition constant Ki at human NTSR1 (setting [3]) stood at 1.15 nM.
As to `COc1cc2cc(c1Cl)N(C)C(=O)C[C@H](OC(=O)[C@H](C)N(C)C(=O)CCSC1CC(=O)N(CCCNC(=O)CNC(=O)[C@H](CC(C)C)NC(=O)[C@H](Cc3ccccc3)NC(=O)CNC(=O)CCC(=O)NCCCC[C@H](NC(C)=O)C(=O)N3CCC[C@H]3C(=O)N[C@@H](CC(C)C)C(=O)N3CCC[C@H]3C(=O)N(C)[C@@H](CCCNC(=N)N)C(=O)N[C@H](C(=O)N[C@@H](CCCNC(=N)N)C(=O)N[C@@H](Cc3ccc(O)cc3)C(=O)O)C(C)(C)C)C1=O)[C@]1(C)O[C@H]1[C@H](C)[C@@H]1C[C@@](O)(NC(=O)O1)[C@H](OC)/C=C/C=C(\C)C2` (stereo partly drawn) [Compound 79], the figures for the IC50 in assay [1] (NTSR1 scrambled compound) and in assay [2] (NTSR1 scrambled compound) were 76 nM and 97 nM, respectively. For the same molecule, the inhibition constant Ki on human NTSR1 (setting [3]) is 980 nM.
